Results on ten compounds are retold here after patent US20240148821A1, “PHARMACEUTICAL USE OF CYCLIC PEPTIDE COMPOUND” (CHUGAI SEIYAKU KABUSHIKI KAISHA, priority 2021, published 2024).

Numbered stars: 1 amine (or outer) side, 2 acyl side, 3 side chain; on linkers, the order of the positions; unused ones are H or OH. Bridge positions count the residues as written; N and C are the ends. Square brackets hold non-standard residues; d marks the D form. Peptide text beside a SMILES is read from it. * marks the point of attachment. hPhe(3-Cl-4-CF3) = N[C@@H](CCc1ccc(C(F)(F)F)c(Cl)c1)C(=O)O; hPhe(3-F,4-CF3) = N[C@@H](CCc1ccc(C(F)(F)F)c(F)c1)C(=O)O; 3Oxa8azabicyclo(3.2.1)octane = C1CC2COCC1N2*; NMePhe(4-Cl) = CN[C@@H](Cc1ccc(Cl)cc1)C(=O)O; NMePhe(2-CN) = CN[C@@H](Cc1ccccc1C#N)C(=O)O; NMedβ3hAla = C[C@H](CC(=O)[*:2])N(C)[*:1]; X72 = O=C([C@@H]1Cc2ccccc2N1[*:1])[*:2]; NMeGly(cPent) = CN[C@H](C(=O)O)C1CCCC1; Phe(3-I) = N[C@@H](Cc1cccc(I)c1)C(=O)O; NMeCha = CN[C@@H](CC1CCCCC1)C(=O)O; NMeCba = CN[C@@H](CC1CCC1)C(=O)O; NMeChg = CN[C@H](C(=O)O)C1CCCCC1; dNMeF = CN[C@H](Cc1ccccc1)C(=O)O; NMeβAla = CN(CCC(=O)[*:2])[*:1]; NMeD = CN[C@@H](CC(=O)O)C(=O)O; NMeL = CN[C@@H](CC(C)C)C(=O)O; NMehSer = CN[C@@H](CCO)C(=O)O; NMeV = CN[C@H](C(=O)O)C(C)C; d(β3hA) = C[C@@H](N)CC(=O)O; Pip = O=C(O)[C@@H]1CCCCN1; NMeA = CN[C@@H](C)C(=O)O; NMeAib = CNC(C)(C)C(=O)O; Nle = CCCC[C@H](N)C(=O)O; Piperidide = C1CCN(*)CC1; Ac5c = NC1(C(=O)O)CCCC1; Aze = O=C(O)[C@@H]1CCN1; Thp = NC1(C(=O)O)CCOCC1; Sar = CNCC(=O)O Where only a bound is given, the exact number is not on record here.

This experiment relates to Human pancreatic cancer cell line AsPC-1 (G12D mutation Kras). Put plainly: AsPC-1 cell growth inhibition (AsPC-1 CGI). It counts as cell-based. The settings on record: read-out: AsPC-1 cell growth inhibition, 50% growth inhibitory concentration (IC50 value); 96 hours, CellTiter-Glo, values classified in ranges.
Experimental: Test compounds were serially dilated with dimethyl sulfoxide, and 200 nL was then dispensed to a U-bottom 96-well plate using Labcyte Echo. […] The cell suspension was dispensed to a. plate containing a test compound at 100 μL per well and incubated at 37° C. in a 5% carbon dioxide gas incubator. 96 hours later, 80 μL of CellTiter-Glo (Promega) was added to each well and fluorescence was measured.
As to `CC[C@H](C)[C@@H]1NC(=O)[C@H](CC(C)C)N(C)C(=O)C[C@@H](C)N(C)C(=O)[C@H](CC2CCC2)N(C)C(=O)C2(CCCC2)NC(=O)[C@@H]2CCCN2C(=O)[C@H](CCc2ccc(C(F)(F)F)c(Cl)c2)NC(=O)CN(C)C(=O)[C@H](CC2CCCCC2)N(C)C(=O)CN(C)C(=O)CN(C)C1=O` [Compound 723] (cyclo([Ac5c][NMeCba][NMedβ3hAla][NMeL]I[Sar][Sar][NMeCha][Sar][hPhe(3-Cl-4-CF3)]P)), the IC50 is more than 500 nM.

With `CC[C@H](C)[C@@H]1NC(=O)[C@H](CC(C)C)N(C)C(=O)C[C@@H](C(=O)N2CCCCC2)N(C)C(=O)[C@H](C2CCCCC2)N(C)C(=O)C2(CCCC2)NC(=O)[C@@H]2Cc3ccccc3N2C(=O)[C@H](CCc2ccc(C(F)(F)F)c(Cl)c2)NC(=O)CN(C)C(=O)[C@H](CC2CCCCC2)N(C)C(=O)[C@@H]2CCN2C(=O)CN(C)C1=O` [Compound 725] ([NMeL]I[Sar][Aze][NMeCha][Sar][hPhe(3-Cl-4-CF3)][X72][Ac5c][NMeChg][NMeD]-Piperidide; lactam N-11), the IC50 is more than 500 nM.

Take `CC[C@H](C)[C@@H]1NC(=O)[C@H](CC(C)C)N(C)C(=O)C[C@@H](C(=O)N2CCCCC2)N(C)C(=O)[C@H](C2CCCCC2)N(C)C(=O)C2(CCCC2)NC(=O)[C@@H]2CCCCN2C(=O)[C@H](CCc2ccc(C(F)(F)F)c(Cl)c2)NC(=O)CN(C)C(=O)[C@H](CC2CCCCC2)N(C)C(=O)CN(C)C(=O)CN(C)C1=O` [Compound 728] ([NMeL]I[Sar][Sar][NMeCha][Sar][hPhe(3-Cl-4-CF3)][Pip][Ac5c][NMeChg][NMeD]-Piperidide; lactam N-11): the IC50 was more than 500 nM.

Consider `CC[C@H](C)[C@@H]1NC(=O)[C@H](CC(C)C)N(C)C(=O)C[C@@H](C(=O)N2C3CCC2COC3)N(C)C(=O)[C@H](C2CCCC2)N(C)C(=O)C2(CCCC2)NC(=O)[C@@H]2CCCN2C(=O)[C@H](CCc2ccc(C(F)(F)F)c(F)c2)NC(=O)CN(C)C(=O)[C@H](CC2CCCCC2)N(C)C(=O)[C@@H]2CCN2C(=O)[C@H](C)N(C)C1=O` [Compound 734] ([NMeL]I[NMeA][Aze][NMeCha][Sar][hPhe(3-F,4-CF3)]P[Ac5c][NMeGly(cPent)][NMeD]-{3Oxa8azabicyclo(3.2.1)octane}; lactam N-11), for which the IC50 was not above 20 nM.

As to `CC[C@H](C)[C@@H]1NC(=O)[C@H](CC(C)C)N(C)C(=O)C[C@@H](C(=O)N(C)C)N(C)C(=O)[C@H](C2CCCC2)N(C)C(=O)[C@H](C)NC(=O)[C@@H](C)NC(=O)[C@H](CCc2ccc(C(F)(F)F)c(Cl)c2)NC(=O)CN(C)C(=O)[C@H](CC2CCCCC2)N(C)C(=O)[C@@H]2CCN2C(=O)[C@H](C)N(C)C1=O` [Compound 736] ([NMeL]I[NMeA][Aze][NMeCha][Sar][hPhe(3-Cl-4-CF3)][dA]A[NMeGly(cPent)][NMeD]-NMe2; lactam N-11), the IC50 is more than 500 nM.

As for `CC[C@H](C)[C@@H]1NC(=O)[C@H](CC(C)C)N(C)C(=O)C[C@@H](C)N(C)C(=O)[C@H](CC(C)C)N(C)C(=O)C2(CCOCC2)NC(=O)[C@@H]2CCCN2C(=O)[C@H](CCc2ccc(C(F)(F)F)c(Cl)c2)NC(=O)CN(C)C(=O)[C@H](CC2CCCCC2)N(C)C(=O)CN(C)C(=O)CN(C)C1=O` [Compound 742] (cyclo(I[Sar][Sar][NMeCha][Sar][hPhe(3-Cl-4-CF3)]P[Thp][NMeL][NMedβ3hAla][NMeL])), the IC50 was more than 500 nM.

Take `CC[C@H](C)[C@@H]1NC(=O)[C@H](CC(C)C)N(C)C(=O)C[C@@H](C(=O)N2CCCCC2)N(C)C(=O)[C@H](CCOC)N(C)C(=O)C2(CCCC2)NC(=O)[C@@H]2CCCN2C(=O)[C@H](CCc2ccc(C(F)(F)F)c(Cl)c2)NC(=O)CN(C)C(=O)[C@H](CC2CCCCC2)N(C)C(=O)CN(C)C(=O)CN(C)C1=O` [Compound 744] ([NMeL]I[Sar][Sar][NMeCha][Sar][hPhe(3-Cl-4-CF3)]P[Ac5c][NMehSer](Me)[NMeD]-Piperidide; lactam N-11): the IC50 was more than 500 nM.

Regarding `CC[C@H](C)[C@@H]1NC(=O)CCN(C)C(=O)[C@@H](Cc2ccccc2)N(C)C(=O)[C@H](C2CCCC2)N(C)C(=O)C2(CCCC2)NC(=O)[C@@H]2CCCN2C(=O)[C@H](CCc2ccc(C(F)(F)F)c(Cl)c2)NC(=O)CN(C)C(=O)[C@H](CC2CCCCC2)N(C)C(=O)CN(C)C(=O)CN(C)C1=O` [Compound 753] (cyclo([Ac5c][NMeGly(cPent)][dNMeF][NMeβAla]I[Sar][Sar][NMeCha][Sar][hPhe(3-Cl-4-CF3)]P)), the IC50 was more than 500 nM.

`CCCC[C@@H]1NC(=O)C(C)(C)N(C)C(=O)[C@H](CCCC)NC(=O)[C@H](Cc2cccc(I)c2)NC(=O)CN(C)C(=O)[C@H](Cc2ccc(Cl)cc2)N(C)C(=O)CN(C)C(=O)CN(C)C(=O)[C@H]([C@@H](C)CC)NC(=O)[C@H](CC(C)C)N(C)C(=O)C[C@@H](C(=O)N2CCCCC2)N(C)C1=O` [Compound 765] ([NMeL]I[Sar][Sar][NMePhe(4-Cl)][Sar][Phe(3-I)][Nle][NMeAib][Nle][NMeD]-Piperidide; lactam N-11): the IC50 is more than 500 nM.

Regarding `CC[C@H](C)[C@@H]1NC(=O)[C@H](CC(C)C)N(C)C(=O)C[C@@H](C)NC(=O)[C@H](C(C)C)N(C)C(=O)C2(CCCC2)NC(=O)[C@@H]2CCCN2C(=O)[C@H](CCc2ccc(C(F)(F)F)c(Cl)c2)NC(=O)CN(C)C(=O)[C@H](Cc2ccccc2C#N)N(C)C(=O)CN(C)C(=O)CN(C)C1=O` [Compound 767] (cyclo([Ac5c][NMeV][d(β3hA)][NMeL]I[Sar][Sar][NMePhe(2-CN)][Sar][hPhe(3-Cl-4-CF3)]P)), the IC50 was more than 500 nM.
